pEC50, pIC50: −log10 of the molar value.
Columns and labels:
[1] = target: S. aureus Alpha hemolysin (Staphylococcus aureus, UniProt P09616); assay: cell-based
[2] = target: hemolysin alpha from Staphylococcus aureus (Staphylococcus aureus, UniProt P09616); assay: cell-based
Chain of hemolysin alpha from Staphylococcus aureus (P09616 27-319 limits assumed): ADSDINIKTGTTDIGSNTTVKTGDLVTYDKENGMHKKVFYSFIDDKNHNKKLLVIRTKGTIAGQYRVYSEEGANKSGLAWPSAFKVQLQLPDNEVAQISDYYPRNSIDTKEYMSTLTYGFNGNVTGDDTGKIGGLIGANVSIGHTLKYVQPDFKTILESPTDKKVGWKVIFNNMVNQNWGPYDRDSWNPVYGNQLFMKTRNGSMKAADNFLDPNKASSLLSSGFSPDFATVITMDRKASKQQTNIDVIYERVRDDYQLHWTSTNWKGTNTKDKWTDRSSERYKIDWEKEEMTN

Chain of S. aureus Alpha hemolysin (P09616 27-319 limits assumed): as above

Row | SMILES | pEC50 ([1]; A549-LDH Assay activity) | pIC50 [2] | pEC50 [2] | pEC50 ([1]; LDH Assay EC50)
1 | Cc1cc2[nH]c(=O)c(=O)[nH]c2cc1S(=O)(=O)Nc1ccc(-c2ccnc(Cl)c2)c(Cl)c1 [Compound 30, N-(3-chloro-4-(2-chloropyridin-4-yl)phenyl)-7-methyl-2,3-dioxo-1,2,3,4-tetrahydroquinoxaline-6-sulfonamide] | 7.00 to 7.52 | > 7.52 |  | 
2 | Cc1cc(NS(=O)(=O)c2cc3[nH]c(=O)c(=O)[nH]c3cc2Cl)ccc1-c1ccccc1 [Compound 45, 7-chloro-N-(2-methyl-[1,1′-biphenyl]-4-yl)-2,3-dioxo-1,2,3,4-tetrahydroquinoxaline-6-sulfonamide] | 7.00 to 7.52 | 7.00 to 7.52 |  | 
3 | Cc1cc2[nH]c(=O)c(=O)[nH]c2cc1S(=O)(=O)Nc1ccc(-c2ccc(C#N)c(N(C)C)c2)c(Cl)c1 [Compound 360, N-[3-chloro-4-[4-cyano-3-(dimethylamino)phenyl]phenyl]-7-methyl-2,3-dioxo-1,4-dihydroquinoxaline-6-sulfonamide] | 6.00 to 7.00 |  | 7.00 to 7.52 | 
4 | Cc1cc2[nH]c(=O)c(=O)[nH]c2cc1S(=O)(=O)Nc1ccc(-c2ccccc2C(F)(F)F)c(Cl)c1 [Compound 139, N-(2-chloro-2′-(trifluoromethyl)-[1,1′-biphenyl]-4-yl)-7-methyl-2,3-dioxo-1,2,3,4-tetrahydroquinoxaline-6-sulfonamide] | 5.22 to 6.00 | 6.00 to 7.00 |  | 
5 | Cc1cc2[nH]c(=O)c(=O)[nH]c2cc1S(=O)(=O)Nc1ccc(-c2cccc(Cl)c2)c(Cl)c1 [Compound 26, N-(2,3′-dichloro-[1,1′-biphenyl]-4-yl)-7-methyl-2,3-dioxo-1,2,3,4-tetrahydroquinoxaline-6-sulfonamide] | 7.00 to 7.52 | > 7.52 |  | 
6 | C#Cc1cc(NS(=O)(=O)c2cc3[nH]c(=O)c(=O)[nH]c3cc2C)ccc1-c1ccc2oc(C)nc2c1 [Compound 373, N-[3-ethynyl-4-(2-methyl-1,3-benzoxazol-5-yl)phenyl]-7-methyl-2,3-dioxo-1,4-dihydroquinoxaline-6-sulfonamide] | > 7.52 |  | > 7.52 | 
7 | O=c1[nH]c2cc(OC3CC3)c(S(=O)(=O)Nc3ccc(OC(F)(F)F)cc3)cc2[nH]c1=O [Compound 382, 7-(cyclopropoxy)-2,3-dioxo-N-[4-(trifluoromethoxy)phenyl]-1,4-dihydroquinoxaline-6-sulfonamide] | 6.00 to 7.00 |  | 5.46 to 6.00 | 
8 | O=c1[nH]c2cc(OC(F)(F)F)c(S(=O)(=O)Nc3ccc(-c4ccc(F)cc4)c(Cl)c3)cc2[nH]c1=O [Compound 197, N-(2-chloro-4′-fluoro-[1,1′-biphenyl]-4-yl)-2,3-dioxo-7-(trifluoromethoxy)-1,2,3,4-tetrahydroquinoxaline-6-sulfonamide] | 5.22 to 6.00 |  | 5.46 to 6.00 | 
9 | C#Cc1cc(NS(=O)(=O)c2cc3[nH]c(=O)c(=O)[nH]c3cc2C)ccc1-c1ccc2cc[nH]c2c1 [Compound 301, N-[3-ethynyl-4-(1H-indol-6-yl)phenyl]-7-methyl-2,3-dioxo-1,4-dihydroquinoxaline-6-sulfonamide] | > 7.52 |  | > 7.52 | 
10 | COCCn1cc(-c2ccc(NS(=O)(=O)c3cc4[nH]c(=O)c(=O)[nH]c4cc3C)cc2Cl)cn1 [Compound 344, N-[3-chloro-4-[1-(2-methoxyethyl)pyrazol-4-yl]phenyl]-7-methyl-2,3-dioxo-1,4-dihydroquinoxaline-6-sulfonamide] | 5.22 to 6.00 |  | 5.46 to 6.00 | 
11 | Cc1cc2[nH]c(=O)c(=O)[nH]c2cc1S(=O)(=O)Nc1ccc(-c2ccc(F)c(C(N)=O)c2)c(C(F)(F)F)c1 [Compound 368, 2-fluoro-5-[4-[(7-methyl-2,3-dioxo-1,4-dihydroquinoxalin-6-yl)sulfonylamino]-2-(trifluoromethyl)phenyl]benzamide] | 6.00 to 7.00 |  | 7.00 to 7.52 | 
12 | Cc1cc2[nH]c(=O)c(=O)[nH]c2cc1S(=O)(=O)Nc1cc(C)c(-c2cccc(N(C)C)c2)c(C)c1 [Compound 59, N-(3′-(dimethylamino)-2,6-dimethyl-[1,1′-biphenyl]-4-yl)-7-methyl-2,3-dioxo-1,2,3,4-tetrahydroquinoxaline-6-sulfonamide] | 6.00 to 7.00 | 7.00 to 7.52 |  | 
13 | COc1cc(OC)cc(-c2ccc(NS(=O)(=O)c3cc4[nH]c(=O)c(=O)[nH]c4cc3C)cc2Cl)c1 [Compound 258, N-[3-chloro-4-(3,5-dimethoxyphenyl)phenyl]-7-methyl-2,3-dioxo-1,4-dihydroquinoxaline-6-sulfonamide] | 6.00 to 7.00 |  | 6.00 to 7.00 | 
14 | Cc1ccc(-c2ccc(NS(=O)(=O)c3cc4[nH]c(=O)c(=O)[nH]c4cc3C)cc2Cl)cc1Cl [Compound 286, N-[3-chloro-4-(3-chloro-4-methyl-phenyl)phenyl]-7-methyl-2,3-dioxo-1,4-dihydroquinoxaline-6-sulfonamide] | 6.00 to 7.00 |  | 7.00 to 7.52 | 
15 | O=c1[nH]c2cc(F)c(S(=O)(=O)Nc3ccc(C4CCCCC4)cc3)cc2[nH]c1=O [Compound 71, N-(4-cyclohexylphenyl)-7-fluoro-2,3-dioxo-1,2,3,4-tetrahydroquinoxaline-6-sulfonamide] | 6.00 to 7.00 | 6.00 to 7.00 |  | 
16 | Cc1cc2[nH]c(=O)c(=O)[nH]c2cc1S(=O)(=O)Nc1ccc(-c2ccc3c(C)c[nH]c3c2)c(Cl)c1 [Compound 352, N-[3-chloro-4-(3-methyl-1H-indol-6-yl)phenyl]-7-methyl-2,3-dioxo-1,4-dihydroquinoxaline-6-sulfonamide] | 6.00 to 7.00 |  | 6.00 to 7.00 | 
17 | O=c1[nH]c2cc(Cl)c(S(=O)(=O)Nc3ccc4c(c3)CCCC4)cc2[nH]c1=O [Compound 174, 7-chloro-2,3-dioxo-N-(5,6,7,8-tetrahydronaphthalen-2-yl)-1,2,3,4-tetrahydroquinoxaline-6-sulfonamide] | 7.00 to 7.52 | 6.00 to 7.00 |  | 
18 | Cc1cccc(-c2ccc(NS(=O)(=O)c3cc4[nH]c(=O)c(=O)[nH]c4cc3C)cc2)c1 [Compound 112, 7-methyl-N-(3′-methyl-[1,1′-biphenyl]-4-yl)-2,3-dioxo-1,2,3,4-tetrahydroquinoxaline-6-sulfonamide] | 6.00 to 7.00 | 6.00 to 7.00 |  | 
19 | COc1ccccc1-c1ccc(NS(=O)(=O)c2cc3[nH]c(=O)c(=O)[nH]c3cc2C)cc1Cl [Compound 72, N-(2-chloro-2′-methoxy-[1,1′-biphenyl]-4-yl)-7-methyl-2,3-dioxo-1,2,3,4-tetrahydroquinoxaline-6-sulfonamide] | 6.00 to 7.00 | 6.00 to 7.00 |  | 
20 | Cc1cc2[nH]c(=O)c(=O)[nH]c2cc1S(=O)(=O)Nc1ccc(-c2ccc(F)cc2)c(C#N)c1 [Compound 377, N-[3-cyano-4-(4-fluorophenyl)phenyl]-7-methyl-2,3-dioxo-1,4-dihydroquinoxaline-6-sulfonamide] | 6.00 to 7.00 |  | 6.00 to 7.00 | 
21 | O=c1[nH]c2ccc(S(=O)(=O)Nc3ccc(C4CC4)cc3)cc2[nH]c1=O [drawing 470 (R^2 = H), reference compound] |  |  | 6.37 | 7.10
22 | CC(C)c1ccc(NS(=O)(=O)c2cc3[nH]c(=O)c(=O)[nH]c3cc2Cl)cc1 [Compound 142, 7-chloro-N-(4-isopropylphenyl)-2,3-dioxo-1,2,3,4-tetrahydroquinoxaline-6-sulfonamide] | 6.00 to 7.00 | 6.00 to 7.00 |  | 
23 | Cc1cc2[nH]c(=O)c(=O)[nH]c2cc1S(=O)(=O)Nc1ccc(SC(F)(F)F)cc1 [Compound 396, 7-methyl-2,3-dioxo-N-[4-(trifluoromethylsulfanyl)phenyl]-1,4-dihydroquinoxaline-6-sulfonamide] | 7.00 to 7.52 |  | 6.00 to 7.00 | 
